Where two headings read alike, the source gives them in different places.
Tested on: adhesion of U937 cells to HUVEC stimulated by IL-1β or TNFα
Assay: Inhibitory effect on cell adhesion (U937 adhesion to stimulated HUVEC)
Format: cell-based
Conditions: Homo sapiens, compound at 1 μM, fluorescence-labeled U937 adhesion for 1 hour
Description: This test was conducted by reference to the method of Ross et al. (J. Biol. Chem., 267, 8537-8543 (1992)). More specifically, after human umbilical venous endothelial cells (HUVEC) were cultured on a 48-well plate to confluent growth, IL−1β or TNFα was added thereto. Upon elapsed time of 5 hours after the addition, U937, which is a human monocytic/histocytic cell fluorescence-labeled with PKH2 (product of Dainippon Pharmaceutical Co., Ltd.), was added in a proportion of 1×10^6 cells per well. After the plate was left at rest at room temperature for 1 hour, unadhered U937 was washed out and lysed in 1% Triton X-100 to measure a remaining fluorescence intensity (excitation wavelength: 480 nm; measuring wavelength: 530 nm). HUVEC and U937 were cultured in EGM-2 (product of Sanko Junyaku K.K.) and 10% FCS-containing RPMI1640, respectively. Each test agent was added to HUVEC upon the addition of IL-1β or TNFα and to U937 24 hours prior to the cell adhesion test. The inhibitory activity was calculated out according to the equation [100−(C−B)/(A−B)×100 (%)], wherein A is the number of U937 cells adhered to HUVEC stimulated by IL−1β or TNFα when no test agent was added, B is the number of U937 cells adhered to HUVEC not stimulated by IL-1β or TNFα when no test agent was added, and C is the number of U937 cells adhered to HUVEC stimulated by ILβ or TNFα when the test agent was added. As control compounds, Test Compound 1 described in Japanese Patent Application Laid-Open No. 9-143075 and dilazep described in Japanese Patent Application Laid-Open No. 11-92382 were simultaneously evaluated.

[1] = HUVEC stimulated by IL-1β for 5 hours, read-out: Percent inhibition (%) of cell adhesion, Stimulation by IL-1β
[2] = HUVEC stimulated by TNFα for 5 hours, read-out: Percent inhibition (%) of cell adhesion, Stimulation by TNFα

Row | SMILES | inhibition at 1 µM [1] | inhibition at 1 µM [2]
1 | COc1cc(C(=O)OCCCN2CCCN(CCCOC(=O)c3cc(OC)c(OC)c(OC)c3)CC2)cc(OC)c1OC [Dilazep, dilazep, reference compound] | 0% | 12%
2 | COc1cc(-c2cccc(CN3CCCN(Cc4cccc(-c5cc(OC)c(OC)c(OC)c5)c4)CC3)c2)cc(OC)c1OC [Example 4, N,N′-bis[3-(3,4,5-Trimethoxyphenyl)benzyl]-homopiperazine] | 42% | 43%
3 | COc1cc(-c2cc(CN3CCN(Cc4ccnc(-c5cc(OC)c(OC)c(OC)c5)c4)CC3)ccn2)cc(OC)c1OC [Example 9, N,N′-bis[[2-(3,4,5-Trimethoxyphenyl)pyridin-4-yl]methyl]piperazine] | 53% | 64%
4 | COc1cc(-c2cc(CN3CCCN(Cc4ccnc(-c5cc(OC)c(OC)c(OC)c5)c4)CC3)ccn2)cc(OC)c1OC [Example 10, N,N′-bis[[2-(3,4,5-Trimethoxyphenyl)pyridin-4-yl]methyl]homopiperazine] | 63% | 71%
5 | COc1cc(C#Cc2cc(CN3CCN(Cc4ccnc(C#Cc5cc(OC)c(OC)c(OC)c5)c4)CC3)ccn2)cc(OC)c1OC [Example 22, N,N′-bis[[2-(3,4,5-Trimethoxyphenylethynyl)-pyridin-4-yl]methyl]piperazine] | 34% | 50%
